Assay results as given in patent US8299059B2, “Crystalline compound and a process for its preparation” (Eli Lilly and Company, priority 2009, dated 2012).

Key:
Assay type in all cases: physicochemical
[1] = Determination of specific surface area (BET isotherm, nitrogen)
Protocol: Specific surface area is determined from BET isotherm measurements using nitrogen as the absorbed gas.

[2] = Determination of particle size distribution by laser diffraction; conditions: for x10 / x90: cumulative volume distribution (undersized); for x50: median particle size
Protocol: Laser diffraction particle size analysis is employed to determine the x10, x50 and x90 values. The procedure uses Fraunhofer laser diffraction theory to calculate the particle size distribution. The analysis is performed with a Malvern Mastersizer 2000 equipped with a Hydro 2000S wet module. A filtered (0.22 μm) solution composed of 0.35% (v/v) sorbitan monooleate (SPAN® 80) in hexanes and saturated with semagacestat is used as the dispersant. The parameters used in the analysis are as follows: sample refractive index—1.555, sample absorption—0.1, dispersant refractive index—1.37, result calculation model—General purpose, normal sensitivity, sample measurement time—12 seconds, background measurement time—12 seconds, and stirrer/pump speed—2700 rpm. A dry sample is added to the Hydro 2000S wet module with sonication on at 100%, until the obscuration is between 10 and 20%. The sample is sonicated for 12 s and stirred for a total of 2 min (including sonication) prior to the analysis. Two separate assays are typically run; the average values are reported.

[3] = Determination of particle flowability (Schulze shear cell tester); conditions: flow factor coefficient, pre-consolidation pressure 2000 Pa
Protocol: Particle flowability is characterized using a Schulze shear cell tester with a pre-consolidation pressure of 2000 Pa. The powder sample is contained in an annular shear cell. A vertically acting force is applied to the lid of the flow cell allowing an adjustable normal stress to be applied. The shear cell is slowly rotated and the torque necessary to prevent the cover from rotating is recorded. The measured shear stress that is recorded is the shear stress required for the powder to move or flow against itself. From a plot of the shear stress versus normal force, the flowability or FFC is determined

Row | SSA [1] | x10 [2] | x90 [2] | x50 [2] | FFC [3] | Structure (SMILES)
1 | 0.4 m^2/g | 14 μm | 128 μm | 59 μm | 3.8 | CC(C)[C@H](O)C(=O)N[C@@H](C)C(=O)N[C@@H]1C(=O)N(C)CCc2ccccc21 [Example 1, Crystalline (2S)-2-hydroxy-3-methyl-N-[(1S)-1-methyl-2-oxo-2-[[(1S)-2,3,4,5-tetrahydro-3-methyl-2-oxo-1H-3-benzazepin-1-yl]amino]ethyl]-butanamide anhydrate Form II]
2 | 1.1 m^2/g | 3.5 μm | 54 μm | 17 μm | 2.0 | CC(C)[C@H](O)C(=O)N[C@@H](C)C(=O)N[C@@H]1C(=O)N(C)CCc2ccccc21 [Method 2, Crystalline (2S)-2-hydroxy-3-methyl-N-[(1S)-1-methyl-2-oxo-2-[[(1S)-2,3,4,5-tetrahydro-3-methyl-2-oxo-1H-3-benzazepin-1-yl]amino]ethyl]-butanamide anhydrate Form II]
